According to patent US9981972B2, “N-hydroxy bicyclic hydantoin carbamates as tools for identification of serine hydrolase targets” (ABIDE THERAPEUTICS, INC., priority 2014, dated 2018):

Columns and labels:
Assay in all cases: Gel-based competitive ABPP in vitro, mouse brain membrane proteome
Type in all cases: biochemical
Conditions in all cases: mouse brain (mem) proteome
LYPLA1 = target: T1, LYPLA1 (Mus musculus, UniProt P97823)
T1 construct: a complex proteome endogenously expressing LYPLA1/2 was incubated with test compound; from tissue; host or cells: mouse brain, membrane fraction
How it was run: (§1)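 Mouse brain membrane proteome (1 mg/mL in DPBS) was treated with compound (0.1-100 μM) for 30 min at 37 °C, then labeled with FP-Rh (2 μM final, 30 min, 25 °C). Bands were resolved by SDS-PAGE and scanned in-gel, with inhibition taken from band optical density versus DMSO. Targets counted as active or anti-targets at ≥50% inhibition.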

LYPLA2 = target: T2, LYPLA2 (Mus musculus, UniProt Q9WTL7)
T2 construct: a complex proteome endogenously expressing LYPLA1/2 was incubated with test compound; from tissue; host or cells: mouse brain, membrane fraction
How it was run: as §1

ABHD12 = target: T3, ABHD12 (Mus musculus, UniProt Q99LR1)
T3 construct: from tissue; host or cells: mouse brain, membrane fraction
T3 sequence (Q99LR1 1-398): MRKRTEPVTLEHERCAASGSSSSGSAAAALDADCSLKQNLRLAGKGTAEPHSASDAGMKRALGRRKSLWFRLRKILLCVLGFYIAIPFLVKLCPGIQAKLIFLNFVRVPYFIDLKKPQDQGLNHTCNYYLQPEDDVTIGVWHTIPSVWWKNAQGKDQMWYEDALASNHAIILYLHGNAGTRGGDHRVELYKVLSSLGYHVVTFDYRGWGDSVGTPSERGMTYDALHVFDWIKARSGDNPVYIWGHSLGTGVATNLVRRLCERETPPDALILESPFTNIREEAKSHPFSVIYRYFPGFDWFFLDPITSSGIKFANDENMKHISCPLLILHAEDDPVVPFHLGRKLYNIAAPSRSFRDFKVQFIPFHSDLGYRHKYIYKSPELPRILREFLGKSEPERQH
Method: (§2) Assay Overview: The purpose of this assay was to determine whether test compounds can inhibit LYPLA1 and LYPLA2 in a complex proteomic lysate and to assess anti-target inhibition using a competitive activity-based proteomic profiling (ABPP) assay. In this assay, a complex proteome endogenously expressing LYPLA1/2 was incubated with test compound followed by reaction with a rhodamine-conjugated fluorophosphonate (FP-Rh) serine-hydrolase specific activity-based probe. The reaction products were separated by SDS-PAGE and visualized in-gel using a flatbed fluorescence scanner. The percentage activity remaining was determined by measuring the integrated optical density of the bands. […] Percent inhibition was calculated relative to a DMSO (no compound) control.
(§3) Protocol Summary: Mouse brain membrane proteome (50 μL reaction volume, 1 mg/mL in DPBS) was treated with 0.1-100 μM test compound (1 μL of a 50× stock in DMSO) for 30 minutes at 37° C. FP-Rh (1 μL of 50× stock in DMSO, Thermo #88318) was added to a final concentration of 2 μM. The reactions were incubated for 30 minutes at 25° C., quenched with 16 μL 4×SDS-PAGE loading buffer (reducing), separated by SDS-PAGE and visualized by in-gel fluorescent scanning. The percentage activity remaining was determined by measuring the integrated optical density of the bands relative to a DMSO-only (no compound) control. Assay Cutoff: Compounds with ≥50% inhibition of targets at 1 μM test compound concentration were considered active.

ABHD3 = target: T4, ABHD3 (Mus musculus, UniProt Q91ZH7)
T4 construct: from tissue; host or cells: mouse brain, membrane fraction
T4 sequence (Q91ZH7 1-411): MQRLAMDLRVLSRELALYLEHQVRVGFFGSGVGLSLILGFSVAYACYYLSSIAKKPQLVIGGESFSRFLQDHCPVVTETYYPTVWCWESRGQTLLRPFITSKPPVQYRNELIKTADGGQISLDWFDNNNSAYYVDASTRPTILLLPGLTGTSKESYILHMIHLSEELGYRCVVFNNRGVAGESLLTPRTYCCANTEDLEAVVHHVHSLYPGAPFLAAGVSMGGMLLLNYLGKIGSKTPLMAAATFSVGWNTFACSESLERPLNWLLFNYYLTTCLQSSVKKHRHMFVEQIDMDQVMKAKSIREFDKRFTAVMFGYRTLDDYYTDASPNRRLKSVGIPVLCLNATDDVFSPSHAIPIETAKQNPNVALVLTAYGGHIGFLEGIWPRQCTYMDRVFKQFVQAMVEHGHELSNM
Method: as §2, §3

PLA2G7 = target: T5, PLA2G7 (Mus musculus, UniProt Q60963)
T5 construct: from tissue; host or cells: mouse brain, membrane fraction
T5 sequence (Q60963 22-440): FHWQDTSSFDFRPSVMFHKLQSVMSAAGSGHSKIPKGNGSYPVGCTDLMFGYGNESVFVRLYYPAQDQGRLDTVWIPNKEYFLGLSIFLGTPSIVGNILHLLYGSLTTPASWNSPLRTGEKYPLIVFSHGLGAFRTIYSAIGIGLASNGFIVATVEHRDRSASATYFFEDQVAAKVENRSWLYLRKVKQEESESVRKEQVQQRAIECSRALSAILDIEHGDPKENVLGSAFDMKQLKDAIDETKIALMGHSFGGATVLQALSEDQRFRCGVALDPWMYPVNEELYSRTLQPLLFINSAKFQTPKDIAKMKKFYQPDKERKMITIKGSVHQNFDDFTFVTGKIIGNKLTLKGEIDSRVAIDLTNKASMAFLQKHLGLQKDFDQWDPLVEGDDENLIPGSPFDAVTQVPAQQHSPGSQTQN
Method: as §2, §3

T1 sequence (P97823 whole entry): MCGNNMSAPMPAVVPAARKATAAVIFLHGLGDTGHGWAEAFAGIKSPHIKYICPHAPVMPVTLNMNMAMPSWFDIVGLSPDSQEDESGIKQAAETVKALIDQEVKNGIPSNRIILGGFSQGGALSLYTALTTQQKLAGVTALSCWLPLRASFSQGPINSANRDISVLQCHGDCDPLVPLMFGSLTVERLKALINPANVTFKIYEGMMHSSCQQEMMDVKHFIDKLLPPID
T2 sequence (Q9WTL7 whole entry): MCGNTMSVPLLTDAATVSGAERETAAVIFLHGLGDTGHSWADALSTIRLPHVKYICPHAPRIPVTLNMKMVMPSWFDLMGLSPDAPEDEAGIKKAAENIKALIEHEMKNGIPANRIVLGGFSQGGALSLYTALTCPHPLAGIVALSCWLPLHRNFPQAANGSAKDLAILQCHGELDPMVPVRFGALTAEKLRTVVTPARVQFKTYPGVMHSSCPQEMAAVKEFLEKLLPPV

Row | Compound | LYPLA1 in vitro enzyme activity, % @ 1 μM (LYPLA1) [% @] | LYPLA2 in vitro enzyme activity, % @ 1 μM (LYPLA2) [% @] | ABHD12 in vitro enzyme activity, % @ 10 μM (ABHD12) [% @] | ABHD3 in vitro enzyme activity, % @ 10 μM (ABHD3) [% @] | PLA2G7 in vitro enzyme activity, % @ 10 μM (PLA2G7) [% @] | LYPLA1 in vitro enzyme activity, % @ 10 μM (LYPLA1) [% @] | LYPLA2 in vitro enzyme activity, % @ 10 μM (LYPLA2) [% @] | PLA2G7 in vitro enzyme activity, % @ 1 μM (PLA2G7) [% @]
1 | O=C(ON1C(=O)[C@@H]2CN(C(=O)N3CCOCC3)CCN2C1=O)N1CCC(CCc2ccc(Cl)cc2)CC1 [Compound 50, (S)-7-(morpholine-4-carbonyl)-1,3-dioxohexahydroimidazo[1,5-a]pyrazin-2(3H)-yl 4-(4-chloro-phenethyl)piperidine-1-carboxylate] | 100 | 100 | 0 | 0 | 100 |  |  | 
2 | COc1ccc(N2CCN(C(=O)ON3C(=O)[C@H]4CN(CC5CCN(Cc6ccccc6)CC5)CCN4C3=O)CC2)cc1 [Compound 43, (R)-7-((1-benzylpiperidin-4-yl)methyl)-1,3-dioxo-hexahydroimidazo[1,5-a]pyrazin-2(3H)-yl 4-(4-methoxyphenyl)piperazine-1-carboxylate] |  |  | 0 | 0 |  | 0 | 0 | 100
3 | O=C(ON1C(=O)[C@@H]2CN(C(=O)N3CCOCC3)CCN2C1=O)N1CCN(CCc2ccc(Cl)cc2)CC1 [Compound 41, (S)-7-(morpholine-4-carbonyl)-1,3-dioxo-hexahydroimidazo[1,5-a]pyrazin-2(3H)-yl 4-(4-chlorophenethyl)piperazine-1-carboxylate] |  |  | 0 | 0 | 0 | 100 | 100 | 
4 | COc1ccc(N2CCN(C(=O)ON3C(=O)[C@@H]4CN(CC5CCN(Cc6ccccc6)CC5)CCN4C3=O)CC2)cc1 [Compound 42, (S)-7-((1-benzylpiperidin-4-yl)methyl)-1,3-dioxo-hexahydroimidazo[1,5-a]pyrazin-2(3H)-yl 4-(4-methoxyphenyl)piperazine-1-carboxylate] |  |  | 0 | 0 |  | 50 | 100 | 100
5 | O=C(ON1C(=O)[C@H]2CN(C(=O)N3CCOCC3)CCN2C1=O)N1CCC(CCc2ccc(Cl)cc2)CC1 [Compound 51, (R)-7-(morpholine-4-carbonyl)-1,3-dioxohexahydroimidazo[1,5-a]pyrazin-2(3H)-yl 4-(4-chloro-phenethyl)piperidine-1-carboxylate] | 100 | 100 | 0 | 0 | 100 |  |  | 
